Test results as given in patent US8389500B2, “Fused heterocyclic compounds as ion channel modulators” (Gilead Sciences, Inc., priority 2008, dated 2013).

target: T1, wild-type human cardiac sodium channel, hNav1.5 (late sodium current) (Homo sapiens, UniProt Q14524); test: Late INa screening assay (PatchXpress whole cell patch clamp); format: cell-based; conditions: 1 μM test compound; HEK293 hNav1.5; late INa generated with 10 μM Tefluthrin (some experiments 50 nM ATX II); read-out: Late INa % blk (1 μM test cmpd)
T1 construct: host or cells: HEK293
T1 sequence (Q14524 whole entry): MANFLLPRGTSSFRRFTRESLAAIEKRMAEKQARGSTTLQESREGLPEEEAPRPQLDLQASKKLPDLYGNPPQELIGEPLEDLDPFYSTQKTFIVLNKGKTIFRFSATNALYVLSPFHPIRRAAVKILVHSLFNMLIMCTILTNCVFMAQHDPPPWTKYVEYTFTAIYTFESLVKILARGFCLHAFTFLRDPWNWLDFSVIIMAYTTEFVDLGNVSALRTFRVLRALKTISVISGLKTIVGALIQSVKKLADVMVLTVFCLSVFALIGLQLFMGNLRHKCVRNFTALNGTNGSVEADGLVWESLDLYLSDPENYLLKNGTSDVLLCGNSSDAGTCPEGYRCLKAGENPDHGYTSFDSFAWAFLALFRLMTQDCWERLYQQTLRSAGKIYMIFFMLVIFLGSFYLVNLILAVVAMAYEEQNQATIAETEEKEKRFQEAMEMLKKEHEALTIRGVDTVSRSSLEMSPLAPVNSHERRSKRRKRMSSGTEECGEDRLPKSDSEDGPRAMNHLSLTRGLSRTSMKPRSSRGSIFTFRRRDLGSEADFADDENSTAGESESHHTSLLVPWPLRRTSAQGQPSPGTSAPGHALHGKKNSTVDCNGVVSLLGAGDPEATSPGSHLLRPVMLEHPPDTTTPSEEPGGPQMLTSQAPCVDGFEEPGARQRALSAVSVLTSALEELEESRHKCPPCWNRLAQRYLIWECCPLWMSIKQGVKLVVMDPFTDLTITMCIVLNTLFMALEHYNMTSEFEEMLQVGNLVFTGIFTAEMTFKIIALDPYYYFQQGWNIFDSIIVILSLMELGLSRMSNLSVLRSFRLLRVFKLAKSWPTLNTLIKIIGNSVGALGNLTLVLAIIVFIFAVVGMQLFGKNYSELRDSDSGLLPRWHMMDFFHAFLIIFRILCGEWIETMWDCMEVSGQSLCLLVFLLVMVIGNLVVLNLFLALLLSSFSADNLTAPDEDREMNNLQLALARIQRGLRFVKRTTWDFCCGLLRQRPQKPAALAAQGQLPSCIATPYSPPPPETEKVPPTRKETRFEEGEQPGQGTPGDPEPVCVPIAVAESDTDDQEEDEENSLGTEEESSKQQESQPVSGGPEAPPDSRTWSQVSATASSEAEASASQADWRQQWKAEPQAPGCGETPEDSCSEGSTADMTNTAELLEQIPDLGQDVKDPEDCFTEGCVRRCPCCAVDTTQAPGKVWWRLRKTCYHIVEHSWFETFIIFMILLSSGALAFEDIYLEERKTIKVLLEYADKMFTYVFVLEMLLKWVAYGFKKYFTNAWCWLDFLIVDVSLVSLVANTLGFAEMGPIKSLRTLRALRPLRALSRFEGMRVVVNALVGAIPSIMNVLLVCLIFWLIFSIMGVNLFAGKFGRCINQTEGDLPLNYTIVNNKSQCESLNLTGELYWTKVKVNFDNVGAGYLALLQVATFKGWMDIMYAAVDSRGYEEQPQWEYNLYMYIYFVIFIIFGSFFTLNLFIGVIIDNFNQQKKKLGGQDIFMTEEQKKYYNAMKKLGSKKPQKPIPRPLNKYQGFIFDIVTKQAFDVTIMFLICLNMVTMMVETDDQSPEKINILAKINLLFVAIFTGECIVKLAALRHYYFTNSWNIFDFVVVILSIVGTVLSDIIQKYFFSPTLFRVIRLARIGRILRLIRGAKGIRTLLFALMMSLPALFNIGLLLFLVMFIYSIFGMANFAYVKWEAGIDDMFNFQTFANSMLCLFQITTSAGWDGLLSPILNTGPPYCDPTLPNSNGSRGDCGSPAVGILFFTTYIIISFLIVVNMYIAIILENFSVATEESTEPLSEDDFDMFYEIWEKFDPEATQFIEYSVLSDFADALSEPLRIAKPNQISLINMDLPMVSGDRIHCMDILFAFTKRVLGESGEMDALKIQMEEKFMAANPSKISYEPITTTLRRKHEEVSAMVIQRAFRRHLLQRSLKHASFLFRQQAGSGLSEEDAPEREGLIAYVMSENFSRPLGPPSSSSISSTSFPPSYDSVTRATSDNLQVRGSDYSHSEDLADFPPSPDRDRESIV
Procedure: The late sodium current (Late INa) and peak sodium current (Peak INa) assays are performed on an automated electrophysiology platform, PatchXpress 7000A (MDS Analytical Technologies, Sunnyvale, Calif.), which uses the whole cell patch clamp technique to measure currents through the cell membrane of up to 16 cells at a time. The assay uses an HEK293 (human embryonic kidney) cell line heterologously expressing the wild-type human cardiac sodium channel, hNav1.5, purchased from Millipore (Billerica, Mass.). No beta subunits were coexpressed with the Na channel alpha subunit. Cells are maintained with standard tissue culture procedures and stable channel expression is maintained with 400 μg/ml Geneticin in the culture medium. […] Experiments are carried out at 24-27° C.
For both the Late INa and Peak INa assays, series resistance compensation is set to 50% and whole-cell compensation is performed automatically. […] Currents through open sodium channels are automatically recorded and stored in the DataXpress2 database (MDS Analytical Technologies, Sunnyvale, Calif.). Analysis is performed using DataXpress2 analysis software and data are compiled in Excel.
Compound stocks are routinely made in glass vials to 10 mM in dimethyl sulfoxide (DMSO). In some cases, when compounds are not soluble in DMSO, they are made in 100% ethanol. Stocks are sonicated as necessary. The extracellular solution for screening Late INa is composed of: 140 mM NaCl, 4 mM KCl, 1.8 mM CaCl2, 0.75 mM MgCl2, and 5 mM HEPES with pH adjusted to 7.4 using NaOH. The extracellular solution for screening Peak INa is composed of: 20 mM NaCl, 120 mM N-methyl-D glucamine, 4 mM KCl, 1.8 mM CaCl2, 0.75 mM MgCl2, and 5 mM HEPES with pH adjusted to 7.4 using HCl. The intracellular solution used to perfuse the inside of the cells for both the Late INa and Peak INa assays contains: 120 mM CsF, 20 mM CsCl, 5 mM EGTA, 5 mM HEPES and pH adjusted to 7.4 with CsOH. […] The 0Na extracellular solution used at the end of each experiment for the Late INa and Peak INa assays to measure baseline current contains: 140 mM N-methyl-D-glucamine; 4 mM KCl; 1.8 mM CaCl2; 0.75 mM MgCl2; 5 mM HEPES and pH was adjusted to 7.4 with HCl.
For the Late INa assay, sodium channels are activated every 10 seconds (0.1 Hz) by depolarizing the cell membrane to −20 mV for 250 milliseconds (ms) from a holding potential of −120 mV. In response to a −20 mV voltage step, typical Nav1.5 sodium currents activate rapidly to a peak negative current and then inactivate nearly completely within […].
All compounds are tested to determine their activity in blocking the late sodium current. Late INa current is generated by adding 10 μM Tefluthrin (pyrethroid) to the extracellular solution while recording Na currents For some experiments, 50 nM ATX II (sea anemone toxin), another late Na activator, was used to generate the late component. […] After establishing the whole cell recording configuration, late INa activators are added to each well 4 times over a 16-17 minute period so that the late component of the Na current reaches a stable value. […] Measurements are made at the end of exposure to the third compound addition and values are normalized to the current level when all Na^+ is removed from the extracellular solution after two additions of ONa-ECF. Results are reported as percent block of late INa

SMILES | inhibition at 1 µM
CS(=O)(=O)Nc1ccc(-c2cccc(Cl)c2)c(Cl)c1 [PT-053, N-(2,3′-dichlorobiphenyl-4-yl)methanesulfonamide] | 29.9%
CS(=O)(=O)Nc1ccc(-c2ccc(Cl)c(C(F)(F)F)c2)c(Cl)c1 [PT-058, N-[2,4′-dichloro-3′-(trifluoromethyl)biphenyl-4-yl]methanesulfonamide] | 42.5%
CS(=O)(=O)N(CCN1CCCCC1)c1ccc(-c2ccc(Cl)c(F)c2)c(Cl)c1 [PT-062, N-(2,4′-dichloro-3′-fluorobiphenyl-4-yl)-N-[2-(piperidin-1-yl)ethyl]methanesulfonamide] | 25.7%
CS(=O)(=O)Nc1ccc(-c2cc(C(F)(F)F)cc(C(F)(F)F)c2)c(Cl)c1 [PT-065, N-[2-chloro-3′,5′-bis(trifluoromethyl)biphenyl-4-yl]methanesulfonamide] | 27.8%
CS(=O)(=O)Nc1ccc(-c2cccc(OC(F)(F)F)c2)c(F)c1 [PT-067, N-[2-fluoro-3′-(trifluoromethoxy)biphenyl-4-yl]methanesulfonamide] | 13.8%

same assay, conditions: 10 μM test compound; HEK293 hNav1.5; late INa generated with 10 μM Tefluthrin (some experiments 50 nM ATX II); read-out: Late INa % blk (10 μM test cmpd)

SMILES | inhibition at 10 µM
O=S(=O)(Nc1ccc(-c2ccc(Oc3ccccc3)cc2)c(Cl)c1)C1CC1 [PT-048, N-(2-chloro-4′-phenoxybiphenyl-4-yl)cyclopropanesulfonamide] | 37.9%
COc1ccc(-c2ccc(NS(C)(=O)=O)cc2Cl)cc1 [PT-051, N-(2-chloro-4′-methoxybiphenyl-4-yl)methanesulfonamide] | 27%
CS(=O)(=O)Nc1ccc(-c2cccc(F)c2)c(Cl)c1 [PT-052, N-(2-chloro-3′-fluorobiphenyl-4-yl)methanesulfonamide] | 50.1%
CS(=O)(=O)Nc1ccc(-c2cccc(Cl)c2)c(Cl)c1 [PT-053, N-(2,3′-dichlorobiphenyl-4-yl)methanesulfonamide] | 72.2%
CS(=O)(=O)Nc1ccc(-c2cccc([N+](=O)[O-])c2)c(Cl)c1 [PT-054, N-(2-chloro-3′-nitrobiphenyl-4-yl)methanesulfonamide] | 41.3%
Cc1cc(NS(C)(=O)=O)ccc1-c1ccc(F)cc1 [PT-056, N-(4′-fluoro-2-methylbiphenyl-4-yl)methanesulfonamide] | 40.8%
Cc1cc(NS(C)(=O)=O)ccc1-c1ccc(F)c(F)c1 [PT-057, N-(3′,4′-difluoro-2-methylbiphenyl-4-yl)methanesulfonamide] | 35.9%
CS(=O)(=O)Nc1ccc(-c2ccc(Cl)c(C(F)(F)F)c2)c(Cl)c1 [PT-058, N-[2,4′-dichloro-3′-(trifluoromethyl)biphenyl-4-yl]methanesulfonamide] | 78.5%
CS(=O)(=O)Nc1ccc(-c2ccc(Cl)c(F)c2)c(F)c1 [PT-059, N-(4′-chloro-2,3′-difluorobiphenyl-4-yl)methanesulfonamide] | 41.3%
CS(=O)(=O)N(CCN1CCOCC1)c1ccc(-c2ccc(Cl)c(F)c2)c(Cl)c1 [PT-061, N-(2,4′-dichloro-3′-fluorobiphenyl-4-yl)-N-[2-(morpholin-4-yl)ethyl]methanesulfonamide] | 20.6%
CS(=O)(=O)N(CCN1CCCCC1)c1ccc(-c2ccc(Cl)c(F)c2)c(Cl)c1 [PT-062, N-(2,4′-dichloro-3′-fluorobiphenyl-4-yl)-N-[2-(piperidin-1-yl)ethyl]methanesulfonamide] | 74.8%
CN1CCN(CCN(c2ccc(-c3ccc(Cl)c(F)c3)c(Cl)c2)S(C)(=O)=O)CC1 [PT-063, N-(2,4′-dichloro-3′-fluorobiphenyl-4-yl)-N-[2-(4-methylpiperazin-1-yl)ethyl]methanesulfonamide] | 48.8%
CS(=O)(=O)N(Cc1nn[nH]n1)c1ccc(-c2ccc(Cl)c(F)c2)c(Cl)c1 [PT-064, N-(2,4′-dichloro-3′-fluorobiphenyl-4-yl)-N-(2H-tetrazol-5-ylmethyl)methanesulfonamide] | 30.5%
CS(=O)(=O)Nc1ccc(-c2cc(C(F)(F)F)cc(C(F)(F)F)c2)c(Cl)c1 [PT-065, N-[2-chloro-3′,5′-bis(trifluoromethyl)biphenyl-4-yl]methanesulfonamide] | 85.6%
CS(=O)(=O)N(c1ccc(-c2ccc(Oc3ccccc3)cc2)cc1Cl)C1CCC[C@@H]1O (stereo partly drawn) [PT-066, N-(3-chloro-4′-phenoxybiphenyl-4-yl)-N-[(2S)-2-hydroxycyclopentyl]methanesulfonamide] | 33.8%
CS(=O)(=O)Nc1ccc(-c2cccc(OC(F)(F)F)c2)c(F)c1 [PT-067, N-[2-fluoro-3′-(trifluoromethoxy)biphenyl-4-yl]methanesulfonamide] | 70.7%
CS(=O)(=O)Nc1ccc(-c2cc(F)cc(F)c2)c(Cl)c1 [PT-068, N-(2-chloro-3′,5′-difluorobiphenyl-4-yl)methanesulfonamide] | 42.2%

SMILES | inhibition at 10 µM
CS(=O)(=O)Nc1ccc(-c2ccc(F)c(C(F)(F)F)c2)c(Cl)c1 [PT-069, N-[2-chloro-4′-fluoro-3′-(trifluoromethyl)biphenyl-4-yl]methanesulfonamide] | 63%
CS(=O)(=O)Nc1ccc(-c2cc(C(F)(F)F)ccc2F)c(Cl)c1 [PT-070, N-[2-chloro-2′-fluoro-5′-(trifluoromethyl)biphenyl-4-yl]methanesulfonamide] | 69.7%
CS(=O)(=O)Nc1ccc(-c2cc(F)c(F)c(F)c2)c(Cl)c1 [PT-071, N-(2-chloro-3′,4′,5′-trifluorobiphenyl-4-yl)methanesulfonamide] | 59.5%
O=S(=O)(Nc1ccc(-c2ccc(Oc3ccccc3)cc2)cc1)C1CC1 [PT-072, N-(4′-phenoxybiphenyl-4-yl)cyclopropanesulfonamide] | 35.6%
Cc1cc(N(Cc2cccnc2)S(C)(=O)=O)ccc1-c1cccc(OC(F)(F)F)c1 [PT-073, N-[2-methyl-3′-(trifluoromethoxy)biphenyl-4-yl]-N-(pyridin-3-ylmethyl)methanesulfonamide] | 64.4%
CS(=O)(=O)Nc1ccc(-c2ccc(Cl)c(F)c2)cc1OC(F)(F)F [PT-074, N-[4′-chloro-3′-fluoro-3-(trifluoromethoxy)biphenyl-4-yl]methanesulfonamide] | 24.2%
CS(=O)(=O)Nc1ccc(-c2ccc(C(F)(F)F)cc2)cc1OC(F)(F)F [PT-075, N-[3-(trifluoromethoxy)-4′-(trifluoromethyl)biphenyl-4-yl]methanesulfonamide] | 24.4%
CS(=O)(=O)Nc1ccc(-c2cccc(C(F)(F)F)c2)cc1OC(F)(F)F [PT-076, N-[3-(trifluoromethoxy)-3′-(trifluoromethyl)biphenyl-4-yl]methanesulfonamide] | 18.7%
COCCN(c1ccc(-c2ccc(Cl)c(F)c2)c(Cl)c1)S(C)(=O)=O [PT-077, N-(2,4′-dichloro-3′-fluorobiphenyl-4-yl)-N-(2-methoxyethyl)methanesulfonamide] | 27.2%
CS(=O)(=O)Nc1ccc(-c2ccc(OC(F)(F)F)cc2)c(F)c1 [PT-078, N-[2-fluoro-4′-(trifluoromethoxy)biphenyl-4-yl]methanesulfonamide] | 49.1%
CS(=O)(=O)Nc1ccc(-c2cccc(C(F)(F)F)c2)c(F)c1 [PT-079, N-[2-fluoro-3′-(trifluoromethyl)biphenyl-4-yl]methanesulfonamide] | 53.2%
CS(=O)(=O)Nc1ccc(-c2ccc(C(F)(F)F)cc2)c(F)c1 [PT-080, N-[2-fluoro-4′-(trifluoromethyl)biphenyl-4-yl]methanesulfonamide] | 66%
O=S(=O)(C1CC1)N(Cc1cccnc1)c1ccc(-c2cccc(OC(F)(F)F)c2)c(Cl)c1 [PT-081, N-[2-chloro-3′-(trifluoromethoxy)biphenyl-4-yl]-N-(pyridin-3-ylmethyl)cyclopropanesulfonamide] | 40.4%
CS(=O)(=O)Nc1ccc(-c2ccc(OC(F)(F)F)cc2)cc1 [PT-086, N-[4′-(trifluoromethoxy)biphenyl-4-yl]methanesulfonamide] | 9.4%
COc1cc(N(CC(=O)O)S(C)(=O)=O)ccc1-c1cccc(OC(F)(F)F)c1 [PT-089, N-[2-methoxy-3′-(trifluoromethoxy)biphenyl-4-yl]-N-(methylsulfonyl)glycine] | -4.1%
CS(=O)(=O)N(CC(=O)O)c1ccc(-c2ccc(Cl)c(F)c2)c(Cl)c1 [PT-092, N-(2,4′-dichloro-3′-fluorobiphenyl-4-yl)-N-(methylsulfonyl)glycine] | -2.4%
CS(=O)(=O)Nc1ccc(-c2ccc(OC(F)(F)F)cc2)c(Cl)c1 [PT-094, N-[2-chloro-4′-(trifluoromethoxy)biphenyl-4-yl]methanesulfonamide] | 5.6%
